Results as given in patent US20240139211A1, “METHODS AND COMPOSITIONS FOR TREATING AMYOTROPHIC LATERAL SCLEROSIS” (Amylyx Pharmaceuticals, Inc., priority 2022, published 2024).
Read-outs that look alike come from different tables or passages of the source.

Assays:
[1] = target: OATP1B1 (Homo sapiens, UniProt Q9Y6L6); experiment: Inhibitor of OATP1B1, probe substrate uptake; settings: for Inhibition of OATP1B1 / Inhibitor of OATP1B1: two concentrations per test article; for potency estimated from few doses: read-out: Estimated IC50, OATP1B1
[2] = system: Caco-2 cells; settings: for Permeability in Caco-2 cell assay: 1 and 10 μM (tauroursodeoxycholic acid: 10 μM)
[3] = target: T1, OCT1 (Homo sapiens, UniProt O15245); experiment: Inhibitor of OCT1, probe substrate uptake; settings: for Inhibition of OCT1 / Inhibitor of OCT1: two concentrations per test article; for potency estimated from few doses: read-out: Estimated IC50, OCT1
T1 sequence (O15245 1-554): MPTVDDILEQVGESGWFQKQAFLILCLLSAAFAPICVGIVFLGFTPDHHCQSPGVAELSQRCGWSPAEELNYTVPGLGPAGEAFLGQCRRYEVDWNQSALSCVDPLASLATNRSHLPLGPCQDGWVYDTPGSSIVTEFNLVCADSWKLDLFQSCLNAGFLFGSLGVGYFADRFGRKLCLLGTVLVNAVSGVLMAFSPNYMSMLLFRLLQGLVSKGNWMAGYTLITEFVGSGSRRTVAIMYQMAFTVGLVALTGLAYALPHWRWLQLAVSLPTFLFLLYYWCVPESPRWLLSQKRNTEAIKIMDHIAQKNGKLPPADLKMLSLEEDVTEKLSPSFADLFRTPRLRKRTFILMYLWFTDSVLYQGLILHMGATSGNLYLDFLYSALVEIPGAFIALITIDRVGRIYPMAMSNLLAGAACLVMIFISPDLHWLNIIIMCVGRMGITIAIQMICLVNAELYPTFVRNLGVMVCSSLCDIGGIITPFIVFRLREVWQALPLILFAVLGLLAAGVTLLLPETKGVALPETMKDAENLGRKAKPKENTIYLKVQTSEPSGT

[4] = target: BSEP (Homo sapiens, UniProt O95342); experiment: Inhibitor of BSEP; settings: for Inhibition of BSEP / Inhibitor of BSEP: two concentrations per test article
[5] = target: T2, MATE1 (Homo sapiens, UniProt Q96FL8); experiment: Inhibitor of MATE1, probe substrate uptake; settings: for potency estimated from few doses: read-out: Estimated IC50, MATE1; for Inhibition of MATE1 / Inhibitor of MATE1: two concentrations per test article
T2 sequence (Q96FL8 1-570): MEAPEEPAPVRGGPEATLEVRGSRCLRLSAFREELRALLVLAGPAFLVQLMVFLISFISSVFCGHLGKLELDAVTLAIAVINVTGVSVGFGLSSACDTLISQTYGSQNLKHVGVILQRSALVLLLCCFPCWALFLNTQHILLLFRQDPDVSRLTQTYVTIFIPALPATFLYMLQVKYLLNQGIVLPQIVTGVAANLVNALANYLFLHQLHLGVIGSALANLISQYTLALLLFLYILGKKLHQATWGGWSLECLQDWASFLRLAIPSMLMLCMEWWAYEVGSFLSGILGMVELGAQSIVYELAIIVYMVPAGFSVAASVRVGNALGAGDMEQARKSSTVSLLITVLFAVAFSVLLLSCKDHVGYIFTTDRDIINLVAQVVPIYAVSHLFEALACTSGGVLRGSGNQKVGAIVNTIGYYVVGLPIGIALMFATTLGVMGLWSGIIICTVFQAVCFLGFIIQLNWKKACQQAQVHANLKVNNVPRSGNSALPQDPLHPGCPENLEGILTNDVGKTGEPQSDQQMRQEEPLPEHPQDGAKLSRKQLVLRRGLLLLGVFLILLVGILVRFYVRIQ

[6] = target: T1, OCT1; experiment: Substrate of OCT1, uptake in HEK293 cells
Description: (§1) Vector-transfected HEK cells were used as a control.

[7] = target: OATP1B3 (Homo sapiens, UniProt Q9NPD5); experiment: Substrate of OATP1B3, uptake in HEK293 cells
Description: as §1

[8] = target: T3, OAT1 (Homo sapiens, UniProt Q4U2R8); experiment: Substrate of OAT1, uptake in HEK293 cells
T3 sequence (Q4U2R8 1-563): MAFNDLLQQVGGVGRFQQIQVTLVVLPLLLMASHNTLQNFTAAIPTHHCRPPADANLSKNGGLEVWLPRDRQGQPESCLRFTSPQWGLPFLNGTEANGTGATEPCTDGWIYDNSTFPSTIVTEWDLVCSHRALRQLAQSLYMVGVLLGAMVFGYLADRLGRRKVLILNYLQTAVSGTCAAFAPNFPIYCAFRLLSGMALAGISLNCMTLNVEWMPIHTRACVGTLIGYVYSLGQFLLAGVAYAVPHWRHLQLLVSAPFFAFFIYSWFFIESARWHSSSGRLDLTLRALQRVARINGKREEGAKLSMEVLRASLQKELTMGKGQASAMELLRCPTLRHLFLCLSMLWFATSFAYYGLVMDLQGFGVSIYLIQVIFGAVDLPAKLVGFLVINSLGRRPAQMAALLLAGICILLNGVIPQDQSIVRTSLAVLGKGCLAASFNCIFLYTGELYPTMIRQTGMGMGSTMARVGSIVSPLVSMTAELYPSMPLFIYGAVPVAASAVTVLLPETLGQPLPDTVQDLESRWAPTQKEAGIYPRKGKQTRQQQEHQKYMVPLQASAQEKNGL
Description: as §1

[9] = target: T4, OAT3 (Homo sapiens, UniProt Q8TCC7); experiment: Substrate of OAT3, uptake in HEK293 cells
T4 sequence (Q8TCC7 1-542): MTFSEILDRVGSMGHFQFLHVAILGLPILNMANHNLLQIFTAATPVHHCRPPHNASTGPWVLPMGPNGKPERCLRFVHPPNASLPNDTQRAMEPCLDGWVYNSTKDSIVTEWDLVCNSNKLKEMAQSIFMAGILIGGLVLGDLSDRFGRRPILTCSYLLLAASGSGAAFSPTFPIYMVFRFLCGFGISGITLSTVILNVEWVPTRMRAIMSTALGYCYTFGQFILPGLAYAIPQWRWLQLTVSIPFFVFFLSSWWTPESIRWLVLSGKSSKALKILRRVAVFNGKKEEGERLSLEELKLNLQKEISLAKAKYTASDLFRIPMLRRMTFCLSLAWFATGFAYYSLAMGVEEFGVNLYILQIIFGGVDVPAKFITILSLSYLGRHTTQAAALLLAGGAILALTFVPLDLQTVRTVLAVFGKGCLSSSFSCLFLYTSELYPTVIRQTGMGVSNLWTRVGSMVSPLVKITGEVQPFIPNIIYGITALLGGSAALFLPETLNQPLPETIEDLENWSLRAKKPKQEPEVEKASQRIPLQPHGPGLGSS
Description: as §1

[10] = estimated from two concentrations
[11] = 1 and 10 μM, transport buffer alone

OATP1B1, sequence (Q9Y6L6 whole entry): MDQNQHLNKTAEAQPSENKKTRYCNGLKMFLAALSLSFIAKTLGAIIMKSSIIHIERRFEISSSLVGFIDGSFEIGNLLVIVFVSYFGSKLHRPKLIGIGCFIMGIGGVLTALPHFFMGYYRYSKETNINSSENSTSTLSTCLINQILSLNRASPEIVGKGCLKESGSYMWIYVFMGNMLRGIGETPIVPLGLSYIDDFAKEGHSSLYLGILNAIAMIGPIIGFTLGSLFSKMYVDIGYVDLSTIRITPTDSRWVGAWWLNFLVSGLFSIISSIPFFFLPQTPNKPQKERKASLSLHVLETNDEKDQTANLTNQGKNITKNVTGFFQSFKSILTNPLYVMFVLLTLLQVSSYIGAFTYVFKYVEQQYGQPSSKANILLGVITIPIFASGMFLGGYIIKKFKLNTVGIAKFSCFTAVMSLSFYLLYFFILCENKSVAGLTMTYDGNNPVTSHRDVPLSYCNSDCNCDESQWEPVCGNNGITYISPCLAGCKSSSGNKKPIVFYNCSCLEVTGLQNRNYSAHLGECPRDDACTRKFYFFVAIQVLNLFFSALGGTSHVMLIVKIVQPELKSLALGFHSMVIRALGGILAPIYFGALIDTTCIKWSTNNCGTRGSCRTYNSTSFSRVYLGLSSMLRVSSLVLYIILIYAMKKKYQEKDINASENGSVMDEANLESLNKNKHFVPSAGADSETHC
BSEP, sequence (O95342 whole entry): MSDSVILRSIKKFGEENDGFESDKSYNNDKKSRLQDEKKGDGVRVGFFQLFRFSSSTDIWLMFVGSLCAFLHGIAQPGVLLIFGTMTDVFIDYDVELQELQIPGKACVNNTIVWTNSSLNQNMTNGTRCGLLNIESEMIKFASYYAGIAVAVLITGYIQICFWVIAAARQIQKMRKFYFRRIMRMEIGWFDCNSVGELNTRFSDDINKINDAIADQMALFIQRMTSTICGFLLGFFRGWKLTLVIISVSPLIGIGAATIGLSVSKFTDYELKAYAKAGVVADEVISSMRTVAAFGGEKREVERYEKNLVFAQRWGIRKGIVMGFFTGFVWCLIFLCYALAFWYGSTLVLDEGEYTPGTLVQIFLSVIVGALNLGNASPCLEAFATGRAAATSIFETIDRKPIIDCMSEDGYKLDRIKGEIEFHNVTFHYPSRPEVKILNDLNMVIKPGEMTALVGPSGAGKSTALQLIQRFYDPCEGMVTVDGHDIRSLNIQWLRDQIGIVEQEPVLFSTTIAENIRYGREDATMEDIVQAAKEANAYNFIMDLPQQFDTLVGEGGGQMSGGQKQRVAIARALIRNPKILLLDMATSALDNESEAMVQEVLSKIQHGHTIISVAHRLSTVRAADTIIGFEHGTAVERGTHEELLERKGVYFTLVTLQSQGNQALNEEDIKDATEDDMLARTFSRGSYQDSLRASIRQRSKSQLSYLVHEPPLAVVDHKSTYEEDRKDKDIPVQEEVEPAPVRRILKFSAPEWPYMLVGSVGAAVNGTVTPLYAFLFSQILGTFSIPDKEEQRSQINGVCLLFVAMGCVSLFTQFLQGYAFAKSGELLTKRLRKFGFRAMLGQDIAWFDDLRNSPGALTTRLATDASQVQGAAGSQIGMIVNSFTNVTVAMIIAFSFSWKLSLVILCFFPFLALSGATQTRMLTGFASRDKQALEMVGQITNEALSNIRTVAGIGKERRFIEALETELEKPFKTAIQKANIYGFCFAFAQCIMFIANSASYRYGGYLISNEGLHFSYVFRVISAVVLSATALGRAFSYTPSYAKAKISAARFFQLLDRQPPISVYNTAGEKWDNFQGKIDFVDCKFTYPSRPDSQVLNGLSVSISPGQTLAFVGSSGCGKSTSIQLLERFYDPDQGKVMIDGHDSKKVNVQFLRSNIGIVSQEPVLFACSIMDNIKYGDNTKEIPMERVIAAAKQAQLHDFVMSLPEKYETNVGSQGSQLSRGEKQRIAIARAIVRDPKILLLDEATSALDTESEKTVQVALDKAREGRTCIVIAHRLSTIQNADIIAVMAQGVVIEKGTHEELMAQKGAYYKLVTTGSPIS
OATP1B3, sequence (Q9NPD5 whole entry): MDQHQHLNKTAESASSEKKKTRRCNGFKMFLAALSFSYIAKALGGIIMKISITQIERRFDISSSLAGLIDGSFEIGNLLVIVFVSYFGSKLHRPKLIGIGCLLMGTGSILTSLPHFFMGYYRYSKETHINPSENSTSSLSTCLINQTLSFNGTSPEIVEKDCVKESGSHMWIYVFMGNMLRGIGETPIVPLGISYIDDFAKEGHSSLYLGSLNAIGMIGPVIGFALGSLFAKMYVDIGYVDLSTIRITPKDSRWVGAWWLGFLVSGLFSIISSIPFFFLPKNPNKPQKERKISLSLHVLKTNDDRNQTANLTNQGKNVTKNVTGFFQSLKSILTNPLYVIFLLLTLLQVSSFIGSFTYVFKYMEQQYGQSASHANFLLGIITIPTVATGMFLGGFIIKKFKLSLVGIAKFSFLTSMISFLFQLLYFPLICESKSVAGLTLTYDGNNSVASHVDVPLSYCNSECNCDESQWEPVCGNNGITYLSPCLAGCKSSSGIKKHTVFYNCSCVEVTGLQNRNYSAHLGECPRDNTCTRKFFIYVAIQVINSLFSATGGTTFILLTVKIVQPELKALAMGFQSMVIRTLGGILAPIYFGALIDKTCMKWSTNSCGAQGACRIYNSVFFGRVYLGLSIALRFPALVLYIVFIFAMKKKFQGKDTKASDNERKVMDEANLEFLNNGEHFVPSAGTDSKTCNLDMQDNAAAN

Row | Compound | Inhibition of OATP1B1 [1] | Inhibitor of OATP1B1 [1] | Permeability in Caco-2 cell assay [2] | Inhibition of OCT1 [3] | Inhibitor of OCT1 [3] | potency estimated from few doses ([4]; human) [µM] | Inhibition of BSEP [4] | Inhibitor of BSEP [4] | potency estimated from few doses [5, 10] [µM] | Inhibition of MATE1 [5] | Inhibitor of MATE1 [5] | potency estimated from few doses [1, 10] [µM] | Substrate of OCT1 ([6]; 1 and 10 μM) | Substrate of OCT1 ([6]; test article 1 and 10 μM) | Substrate of OATP1B3 ([7]; 1 and 10 μM) | Substrate of OATP1B3 ([7]; test article 1 and 10 μM) | Substrate of OAT1 ([8]; 1 and 10 μM) | Substrate of OAT1 ([8]; test article 1 and 10 μM) | Substrate of OAT3 ([9]; 1 and 10 μM) | Substrate of OAT3 ([9]; test article 1 and 10 μM) | other results
1 | C[C@H](CCC(=O)NCC(=O)O)[C@H]1CC[C@H]2[C@@H]3[C@@H](O)C[C@@H]4C[C@H](O)CC[C@]4(C)[C@H]3CC[C@]12C [Glycoursodeoxycholic acid, glycoursodeoxycholic acid] | inhibited | Yes | moderate permeability | did not inhibit | No | < 10 | inhibited | Yes | > 100 | inhibited | Yes |  |  |  |  |  |  |  |  |  | Uptake activity remaining, OATP1B1 ([1]; 10 μM): 50.4%; Uptake activity remaining, OATP1B1 ([1]; 100 μM): 1.68%
2 | O=C(O)CCCc1ccccc1 [PB, sodium phenylbutyrate] | did not inhibit | No | high permeability | did not inhibit | No |  | did not inhibit | No | < 250 | inhibited | Yes |  |  |  |  |  |  |  |  |  | Uptake activity remaining, MATE1 ([5]; 250 μM): 43.7%
3 | O=C(O)Cc1ccccc1 [Phenylacetic acid, phenylacetic acid] | inhibited | Yes | high permeability | did not inhibit | No | < 7500 | inhibited | Yes |  | did not inhibit | No^a | > 7500 | not a substrate | No | identified as a substrate | Yes | not a substrate | No | not a substrate | No | Uptake in OATP1B3 cells ([7]; 1 μM): 5.27 pmol/minute/mg protein; Net OATP1B3 uptake remaining with inhibitor ([7]; 10 μM): 79.0%; Uptake in OATP1B3 cells ([7]; 10 μM): 19.3 pmol/min/mg
4 | tauroursodeoxycholic acid [TUDCA] | inhibited | Yes | moderate in both directions | did not inhibit | No |  | inhibited | Yes | > 50 | inhibited | Yes | < 50 | not a substrate | No |  | Yes | not a substrate | No |  | Yes | Uptake activity remaining, OATP1B1 ([1]; 50 μM): roughly 18%; potency estimated from few doses ([1]; estimated from two doses): < 50 µM; Papp basolateral to apical ([2]; 1 μM): 8.17 ×10⁻⁶ cm/s; Papp apical to basolateral ([2]; 10 μM): 2.43 ×10⁻⁶ cm/s; Papp basolateral to apical ([2]; 10 μM): 3.6 ×10⁻⁶ cm/s; potency estimated from few doses ([4]; read-out: Estimated IC50, BSEP, estimated from two concentrations): < 5 µM; Uptake by OATP1B3 ([7]; 1 and 10 μM): 5.90 pmol/minute/mg protein; potency estimated from few doses ([5]; estimated from two doses): > 50 µM; Uptake by OAT3 ([9]; 1 and 10 μM): ≥ 9.27 pmol/minute/mg protein
5 | ursodeoxycholic acid | inhibited | Yes | high in both directions | inhibited | Yes |  |  |  | < 500 | inhibited | Yes | < 50 | not a substrate | No | not a substrate | No | not a substrate | No | not a substrate | No | Uptake activity remaining, OATP1B1 ([1]; 50 μM): 545.1%; Uptake activity remaining, OATP1B1 ([1]; 500 μM): no uptake activity remaining; potency estimated from few doses ([1]; estimated from two doses): < 50 µM; Apparent permeability in both directions ([2]; 1 and 10 μM): > 18 ×10⁻⁶ cm/s; Papp apical to basolateral [2, 11]: ≥ 18.9 ×10⁻⁶ cm/s; Papp basolateral to apical [2, 11]: ≥ 22.8 ×10⁻⁶ cm/s; potency estimated from few doses [3, 10]: < 500 µM; potency estimated from few doses ([3]; estimated from two doses): < 500 µM; potency estimated from few doses ([5]; estimated from two doses): < 500 µM
